Measured values as given in US10487054B2, “Therapeutic compounds” (REGENTS OF THE UNIVERSITY OF MINNESOTA, priority 2017, dated 2019).

Tested on: JB6 P+ cells
Assay: Western blot of SUV-induced TOPK downstream signaling
Format: cell-based, mouse
Experimental: The cells were cultured, treated for 4 h with different concentrations of compound 1 and then exposed to SUV (60 kJ UVA/m^2 and 2.9 kJ UVB/m^2), followed by an additional 15-minute incubation. Cells were harvested and the levels of phosphorylated and total proteins were determined by Western blot analysis with specific antibodies as indicated. […] The cells were cultured and treated with different concentrations of compound 1 for 24 h. Cells were harvested and the levels of phosphorylated and total proteins were determined by Western blot analysis with specific antibodies as indicated. […] For the luciferase assay, JB6 P+ cells stably transfected with an AP-1 luciferase reporter plasmid were cultured. […] Luciferase activity was measured and AP-1 activity is expressed relative to control cells without SUV treatment. […] Luciferase and 3-galactosidase activities were measured using reagents included in the reporter assay system (right). […] Significant differences were evaluated using one-way ANOVA and the asterisks (*) indicate a significant effect (*, p<0.05; **, p<0.001; ***, p<0.0001). […]
HaCaT or JB6 P+ cells (1×10^6) were cultured in 10-cm dishes for 24 h and then the medium was replaced with 0.1% FBS medium for 24 h. […] Protein concentration in cell lysates was determined using a protein assay kit (Bio-Rad Laboratories, Hercules, Calif.). […]

## O=C1Nc2ccc(C34CC5CC(CC(C5)C3)C4)cc2C1=NO [compound 1, 5-(adamantan-1-yl)-3-(hydroxyimino)indolin-2-one]
JB6 P+ cells exposed to SUV
  phosphorylated c-Jun protein levels: significantly suppressed
JB6 P+ cells, 4 h treatment then SUV (60 kJ UVA/m2 and 2.9 kJ UVB/m2)
  phosphorylation of ERK1/2, p38, and JNKs: markedly suppressed
